Measurements published in paper PMC3441040 (ACS Medicinal Chemistry Letters, 2012).

Legend:
purified murine COX-2 = target: T1, purified murine COX-2 (Mus musculus, UniProt Q05769); test: Inhibition of mCOX-2 dependent oxygenation of 2-AG and AA in vitro; format: biochemical; conditions: read-out: 2-AG IC50 (dash)
T1 sequence (Q05769 18-604): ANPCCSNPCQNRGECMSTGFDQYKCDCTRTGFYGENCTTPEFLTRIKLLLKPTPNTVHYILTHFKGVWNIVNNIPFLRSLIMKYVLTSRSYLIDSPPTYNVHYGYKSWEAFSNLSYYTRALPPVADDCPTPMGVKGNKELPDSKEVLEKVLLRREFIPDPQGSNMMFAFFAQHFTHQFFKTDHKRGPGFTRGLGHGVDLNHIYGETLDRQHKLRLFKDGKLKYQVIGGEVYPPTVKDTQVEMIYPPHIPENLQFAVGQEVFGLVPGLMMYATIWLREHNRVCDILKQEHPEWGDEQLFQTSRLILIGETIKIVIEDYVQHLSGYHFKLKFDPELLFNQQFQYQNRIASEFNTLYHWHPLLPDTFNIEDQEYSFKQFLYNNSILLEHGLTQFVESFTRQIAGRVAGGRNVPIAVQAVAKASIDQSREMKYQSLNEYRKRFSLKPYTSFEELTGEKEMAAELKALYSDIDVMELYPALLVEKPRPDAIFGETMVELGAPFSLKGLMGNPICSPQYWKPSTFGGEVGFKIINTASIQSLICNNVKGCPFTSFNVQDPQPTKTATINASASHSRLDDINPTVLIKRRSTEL

[1] = test system: COX-2 dependent oxygenation in RAW 264.7 macrophages; test: Oxygenation of 2-AG and AA in LPS/interferon γ stimulated RAW 264.7 macrophages; format: cell-based; conditions: Mus musculus, RAW264.7, read-out: AA inhibition in RAW 264.7 cells

SMILES | inhibition at 10 µM (purified murine COX-2) [%] | inhibition at 50 µM [1] [%]
COc1ccc2cc(C(C)(C)C(=O)O)ccc2c1 [4b] | < 50 | –
CC(C)Cc1ccc(C(C)(C)C(=O)O)cc1 [4c] | < 50 | –
CC(C)Cc1ccc(C2(C(=O)O)CC2)cc1 [5c] | < 50 | –
C[C@@H](C(=O)O)c1ccc(-c2ccccc2)c(F)c1 [7a, (R)-flurbiprofen] | – | 0
